# Legend:
# Assay type in all cases: cell-based, human
# iFECD [1] = experiment: HE-staining of extracellular matrix on Transwell with SB431542; details: iFECD on Transwell without serum, fixed one week later; FIG. 9; p<0.01
# Procedure: The iHCEC and the iFECD were cultured in DMEM on Transwell without serum, one week after which they were fixed in a confluent state and HE-stained. The procedure is as described below. If required, deparaffinization (for example, with pure ethanol) and water washing were carried out, and the sample was immersed in hematoxylin from Omni for 10 minutes. Thereafter, water washing with running water was performed, and ammonia water was used for developing color for 30 seconds. Thereafter, water washing with running water for 5 minutes, staining for 2 minutes with a ten-fold diluted solution of eosin hydrochloride, dehydration, lucidification, and mounting were performed. […] Further, the iHCEC and the iFECD were cultured on Transwell Permeable Supports: 0.4 μm, six well plates (Costar, Cat no.: 3450) without serum, one week after which they were fixed in a confluent state and HE-stained. The HE-staining was carried out in accordance with the procedure of the above-described examples.
# iFECD [2] = experiment: Immunostaining of extracellular matrix-constituting proteins with SB431542; details: FIG. 8
# Procedure: For a tissue staining test, cultured cells were put in Lab-TekTM Chamber SlidesTM (NUNC A/S, Roskilde, Denmark), fixed with 4% formaldehyde for 10 minutes at room temperature (RT), and incubated with 1% bovine serum albumin (BSA) for 30 minutes. […] In order to examine expression of an extracellular matrix produced by cells, a 1:200 dilution of each of antibodies against collagen type I, collagen type IV, and Fibronectin was used to carry out. For a secondary antibody, a 1:2000 dilution of Alexa Fluor (registered trademark) 488 labeled, or Alexa Fluor (registered trademark) 594 labeled goat anti-mouse IgG (Life Technologies) was used. Cell nuclei were then stained with DAPI (Vector Laboratories, Inc., Burlingame, Calif.) or PI (Sigma-Aldrich). A slide was then observed under a fluorescence microscope (TCS SP2 AOBS; Leica Microsystems, Welzlar, Germany). Then, expression of collagen type I, collagen type IV, and Fibronectin was similarly examined by immunostaining. The immunostaining was carried out in accordance with the above-described examples, provided that the following antibodies were used as antibodies for collagen type I, collagen type IV, and Fibronectin. An antibody against collagen type I: Anti collagen type I (Rabbit polyclonal) ([…] antibodies and assays, Cat no.: 600-401-103S) An antibody against collagen type IV: collagen type IV (Rabbit polyclonal)(Abcam, Cat no.: ab6586) An antibody against Fibronectin: Anti-fibronectin (mouse monoclonal) (BD Biosciences, Cat no.: 610077)
# iFECD [3] = experiment: Real-time PCR of gene expression with TGF-beta signal inhibiting agent SB431542; details: SB431542 0, 1, 3, 10 μM, FIG. 7, p<0.01
# Procedure: Real-time PCR method: In addition, PCR was performed by a Taqman method for Snail1, Snail2, or ZEB1 in accordance with the following method. A Taqman probe was purchased from INVITROGEN. The mRNA amount of collagen type I, collagen type IV, and Fibronectin was examined by a real-time PCR method. RNEasy (QIAGEN, Catalog number: 74106) was used in extraction of the total RNA from cells. The extracted RNA was subjected to a reverse transcription reaction (42° C., 60 minutes) with ReverTra Ace (TOYOBO Co., Ltd., Catalog number: TRT-101), and collagen type I, collagen type IV, and Fibronectin were amplified with a reaction reagent TaqMan Fast Advanced mastermix (Applied Biosystems) using GAPDH as an internal standard. Probes (a labeled primer set available from Applied Biosystems) described below was used in the PCR reaction, which was performed in the StepOne™ (Applied Biosystems) real-time PCR system. It was then examined whether a TGF-beta signal inhibiting agent, SB431542, can be used to inhibit a TGF-beta signal and adjust extracellular matrix abnormality in a corneal endothelium. SB431542 was obtained from TOCRIS Corporation (Catalog number: 1614). The gene expression amount was confirmed by real-time PCR. Real-time PCR was carried out in accordance with the above-described examples. The following probes were used for collagen type I, collagen type IV, collagen type VIII, and Fibronectin. Collagen type I Hs00164004_ml COL1A1 Collagen type IV Hs00266327_ml COL4A1 Collagen type VIII Hs00697025_ml COL8A2 Fibronectin Hs01549976_ml FN1 GAPDH TaqMan® pre developed Assay Reagents Human GADPH (cat no.: 4333764F)
smiles,measurement,setting,value
"NC(=O)c1ccc(-c2nc(-c3ccc4c(c3)OCO4)c(-c3ccccn3)[nH]2)cc1 [SB431542, 4-[4-(1,3-benzodioxol-5-yl)-5-(2-pyridinyl)-1H-imidazol-2-yl]benzamide]","overproduction of an extracellular matrix (thickness, HE-staining)",iFECD [1],suppressed overproduction of an extracellular matrix in the iFECD to result in the normal level
same,expression of Fibronectin in a protein level (immunostaining),iFECD [2],suppressed
same,expression of collagen type I in a protein level (immunostaining),iFECD [2],suppressed
same,expression of collagen type IV in a protein level (immunostaining),iFECD [2],suppressed
same,expression of collagen type VIII in a protein level (immunostaining),iFECD [2],suppressed
same,expression amount of Snail1 (real-time PCR),iFECD [3],significant decrease
same,expression amount of ZEB1 (real-time PCR),iFECD [3],significant decrease
same,gene expression of Fibronectin (real-time PCR),iFECD [3]; iFECD,significantly suppressed
same,gene expression of collagen type I (real-time PCR),iFECD [3]; iFECD,significantly suppressed
same,gene expression of collagen type IV (real-time PCR),iFECD [3]; iFECD,significantly suppressed
same,gene expression of collagen type VIII (real-time PCR),iFECD [3]; iFECD,significantly suppressed

# Source: patent US11730722B2, “Corneal endothelium ECM therapeutic medicaments” (KYOTO PREFECTURAL PUBLIC UNIVERSITY CORPORATION, priority 2013, dated 2023)
